# Results taken from patent US8652771B2, “Measurement of succinate in urine samples as a biomarker of kidney damage in diabetic subjects” (University of Souther California, priority 2008, dated 2014).
# Where two headings read alike, the source gives them in different places.
# How the values were obtained:
# [1] = test system: JGA (renin-producing JG cells); test: In vitro microperfused afferent arteriole-glomerulus (JGA) renin release, quinacrine fluorescence confocal imaging; parameters: species or system rabbit; conditions: for renin release (change in quinacrine fluorescence intensity [F0-F] normalized to baseline [F0]): agent alone in afferent arteriole perfusate, within 30 minutes, glucose 25.5 mM, equimolar mannitol, α-ketoglutarate 5 mM, otherwise normal glucose 5.5 mM; for effect on high glucose level-induced renin release and afferent arteriole diameter increase (FIG. 1C): high glucose 25.5 mM; for EC50: dose-response, FIG. 2C
# Description: (A and B) Real-time confocal fluorescence imaging of renin content (quinacrine, light gray) and vascular diameter (cell membranes are labeled with R-18, dark gray) in the in vitro microperfused terminal afferent arteriole (AA) with attached glomerulus (G) freshly isolated from rabbit kidney. […] Scale bar: 20 μm.
# (A) Overview of the TCA cycle and sites of inhibition with fluorocitrate (F: 100 μM: blocks aconitase in step 2) and malonate (MAL; 1 mM; blocks succinate dehydrogenase in step 6).
# A superficial afferent arteriole with its glomerulus was microdissected from freshly harvested kidney slices. The afferent arteriole was cannulated and perfused using a method similar to those described previously (37). Briefly, dissection media were prepared from DMEM mixture F-12 (Sigma-Aldrich). Fetal bovine serum (Hyclone) was added at a final concentration of 3%. Vessel perfusion and bath fluid was a modified Krebs-Ringer-HCO3 buffer containing 115 mM NaCl, 25 mM NaHCO3, 0.96 mM NaH2PO4, 0.24 mM Na2HPO4, 5 mM KCl, 1.2 mM MgSO4, 2 mM CaCl2, 5.5 mM d-glucose and 100 μM l-arginine. The solutions were aerated with 95% O2 and 5% CO2 for 45 minutes, and their pH was adjusted to 7.4. Each preparation was transferred to a thermoregulated Lucite chamber mounted on the Leica inverted microscope. The preparation was kept in the dissection solution, and also, temperature was kept at 4° C. until cannulation of the arteriole was completed and then was gradually raised to 37° C. for the remainder of the experiment. In some experiments, the endothelium was mechanically removed from the vessel wall with the help of the perfusion pipette and by perfusing the control solution under the endothelium (between the endothelium and smooth muscle). […] The bath was continuously aerated with 95% O2 and 5% CO2. The acidotropic fluorophore quinacrine (Sigma-Aldrich), which is an intravital fluorescent dye selective for dense-core secretory granules, was used for labeling the renin granules (12, 13, 15). The membrane staining octadecyl rhodamine B chloride R18 and the nuclear stain Hoechst 33342 were used to visualize the glomerulus with its attached afferent arteriole. For ratiometric Ca2+ imaging, the fluo-4/fura red pair was used and calibrated as described before (37). DAF-FM was used to monitor changes in NO production as described (38). All fluorophores were from Invitrogen.
# GENCs [2] = test: GENC [Ca2+]i, fura-2 spectrofluorometry; type: cell-based, mouse; conditions: for GENC intracellular Ca2+ [Ca2+]i level: high glucose 25.5 mM, succinate 5 mM, malonate 1 mM, fluorocitrate 100 p.M, normal glucose baseline 133±14 nM
# GENCs [3] = conditions: read-out: EC50, PGE2 release from GENCs; dose-response, FIG. 6D
# From the text: Specially engineered biosensor cells, HEK293 cells, expressing the Ca^2+-coupled PGE2 receptor EP1 were loaded with fluo-4 and positioned next to GENCs in culture. […] Normalized changes in HEK293-EP1 biosensor cell fluo-4 intensity are shown and served as an index of PGE2 release. n=6 for each dose.
# vascular endothelium = test: Endothelial [Ca2+]i (fluo-4/fura red) and NO production (DAF-FM) in microperfused afferent arteriole-glomerulus; parameters: species or system mouse; conditions: glucose 5.5 to 25.5 mM or succinate 5 mM in arteriolar perfusate
# Description: FIG. 6: GPR91 signaling in the vascular endothelium. […] Scale bar: 20 μm. […] KO (^−/−); n=6 each. […] A superficial afferent arteriole with its glomerulus was microdissected from freshly harvested kidney slices. The afferent arteriole was cannulated and perfused using a method similar to those described previously (37). Briefly, dissection media were prepared from DMEM mixture F-12 (Sigma-Aldrich). […] Vessel perfusion and bath fluid was a modified Krebs-Ringer-HCO3 buffer containing 115 mM NaCl, 25 mM NaHCO3, 0.96 mM NaH2PO4, 0.24 mM Na2HPO4, 5 mM KCl, 1.2 mM MgSO4, 2 mM CaCl2, 5.5 mM d-glucose and 100 μM l-arginine. […] Each preparation was transferred to a thermoregulated Lucite chamber mounted on the Leica inverted microscope. The preparation was kept in the dissection solution, and also, temperature was kept at 4° C. until cannulation of the arteriole was completed and then was gradually raised to 37° C. for the remainder of the experiment. In some experiments, the endothelium was mechanically removed from the vessel wall with the help of the perfusion pipette and by perfusing the control solution under the endothelium (between the endothelium and smooth muscle). […] The acidotropic fluorophore quinacrine (Sigma-Aldrich), which is an intravital fluorescent dye selective for dense-core secretory granules, was used for labeling the renin granules (12, 13, 15). […]
# VSMCs = conditions: saturating doses of succinate
# From the text: (§1) FIG. 5: Localization of GPR91 in GENCs. […] C, control mix with no cDNA; WK, whole kidney from WT GPR91^+/+ or KO GPR91^−/− mice. […] JGC, renin-producing JG cells. (B-E) Localization of GPR91 protein in rat kidney with immunohistochemistry. […] One region of the glomerulus (indicated by a rectangle) is magnified in C and D for high-resolution colocalization studies. […] DIC background is merged with fluorescence to show glomerular morphology. (E) Negative control using no GPR91 primary antibody. Nuclei are medium gray. Scale bar: 10 μm (B-E).
# HEK cells = conditions: saturating doses of succinate
# From the text: as §1
# JG cells = conditions: saturating doses of succinate
# From the text: as §1
# [4] = succinate 5 mM, malonate 1 mM, fluorocitrate 100 μM
# [5] = agent combined with high glucose 25.5 mM, succinate 5 mM, malonate 1 mM, fluorocitrate 100 μM, L-NAME 1 mM, indomethacin 50 μM
# [6] = L-NAME 1 mM, indomethacin 50 μM
Compound,"renin release (change in quinacrine fluorescence intensity [F0-F] normalized to baseline [F0]) [1, 4]","renin release (change in quinacrine fluorescence intensity normalized to baseline) [1, 5]",GENC intracellular Ca2+ [Ca2+]i level (GENCs [2]) [nM],also measured
O=C(O)CC(O)(C(=O)O)C(F)C(=O)O (centres unmarked) [fluorocitrate],11±2 Δ%,16±2 Δ%,143 ± 11,–
OC[C@@H](O)[C@@H](O)[C@H](O)[C@H](O)CO [mannitol],19±4 Δ%,–,–,–
COc1ccc2c(c1)c(CC(=O)O)c(C)n2C(=O)c1ccc(Cl)cc1 [indomethacin],–,13±2 Δ%,–,"effect on high glucose level-induced renin release and afferent arteriole diameter increase (FIG. 1C) [1, 6]: inhibited the effects of high glucose level"
COC(=O)[C@@H](N)CCCNC(=N)N[N+](=O)[O-] [L-NAME],–,14±6 Δ%,–,"effect on high glucose level-induced renin release and afferent arteriole diameter increase (FIG. 1C) [1, 6]: inhibited the effects of high glucose level"
O=C(O)CCC(=O)C(=O)O [α-ketoglutarate],no effect,–,–,–
O=C(O)CCC(=O)O [succinate],73±2 Δ%,56±3 Δ%,549 ± 29,"EC50 [1]: 335 µM; EC50 (GENCs [3]): 214 µM; [Ca2+]i response in GENCs with GPR91 silenced (GENCs [2]; GPR91 siRNA): no [Ca2+]i response; EC50 (GENCs [2]; succinate added to the superfusate, FIG. 5G, read-out: EC50, GENC Ca2+ signal): 69 µM; endothelial NO production (vascular endothelium): significant elevations; endothelial [Ca2+]i (vascular endothelium): significant elevations; [Ca2+]i elevation (VSMCs): did not cause [Ca2+]i elevations; [Ca2+]i elevation (HEK cells): did not cause [Ca2+]i elevations; [Ca2+]i elevation (JG cells): did not cause [Ca2+]i elevations"
O=C(O)CC(=O)O [malonate],54±7 Δ%,77±2 Δ%,377 ± 22,EC50 [1]: 367 µM; renin release (change in quinacrine fluorescence intensity normalized to baseline) ([1]; malonate 1 mM plus succinate 5 mM): 83±4 Δ%
